Patent publication US7968526B2, “Antisense oligonucleotides directed to ribonucleotide reductase R2 and uses thereof in the treatment of cancer” (Lorus Therapeutics Inc., priority 2003, dated 2011)
Entries after “also recorded” stand apart in the source; their conditions may differ.

Tests used:
[1] = system: CB7 Friend retrovirus-induced mouse Erythroleukaemia cells; assay: Survival of SCID mice bearing mouse erythroleukaemia (CB7); type: in vivo; conditions: 10 mg/kg i.v. every second day, stopped at day 71, untreated all died within 36 days
[2] = system: SIHA human cervical cancer cells; assay: SIHA cervical tumour growth in SCID mice (3.10); type: in vivo, human cells in mice
Description: (§1) Treatments lasted for 14 days thereafter. Antitumour activities were estimated by the inhibition of tumour volume, which was measured with a caliper on four different occasions over the treatment period. Each point represents mean tumour volume calculated from 5 animals per experimental group. […] Control animals (control) received saline alone for the same period. At the end of the treatments, the animals were sacrificed, tumours were excised and their weights were measured. Each bar represents mean tumour weight calculated from 6 animals per experimental group. […] Treatments lasted for 24 days thereafter. Antitumour activities were estimated by the inhibition of tumour volume, which was measured with a caliper at two-day intervals over the treatment period. Each point represents mean tumour volume calculated from 4 animals per experimental group. […] Treatments lasted for 24 days thereafter. Antitumour activities were estimated by the inhibition of tumour volume, which was measured with a caliper at two-day intervals over the treatment period. Each point represents mean tumour volume calculated from 4 animals per experimental group. […] Each point represents mean tumour volume calculated from 5 animals per experimental group. […] Antitumour activities were estimated by the inhibition of tumour volume, which was measured with a caliper on four different occasions over 16-day period. Each point represents mean tumour volume calculated from 5 animals per experimental group. […] Antitumour activities were estimated by the inhibition of tumour volume, which was measured with a caliper at two-day intervals over the treatment period. Each point represents mean tumour volume calculated from 5 animals per experimental group. […] Antitumour activities were estimated by the inhibition of tumour volume, which was measured with a caliper at various time intervals over the span of 30 days. Each point represents mean tumour volume calculated from 6 animals per experimental group. […] Antitumour activities were estimated by the inhibition of tumour volume, which was measured with a caliper. […]

[3] = Acute intravenous toxicity study in the monkey; type: in vivo; conditions: rhesus monkeys
Description: Intravenous infusion of SEQ ID NO:1 for 24 hours at doses up to 80 mg/kg/day (984 mg/m^2/day) was well-tolerated by rhesus monkeys. […] These effects indicate an apparent inhibition of the intrinsic coagulation pathway, and modest activation of the alternative complement pathway, respectively. These treatment-related changes were typical class effects of phosphorothioate oligonucleotide administration.

[4] = system: HeLa S3 human cervical cancer cells; assay: HeLa S3 cervical tumour growth in SCID mice (3.11); type: in vivo, human cells in mice
Description: as §1

[5] = system: C8161 human metastatic melanoma cells; assay: Experimental metastasis assay, C8161 cells, treatment post tumour cell injection; type: in vivo, human cells in mice; conditions: C8161 cells i.v. into SCID mice; treatment initiated after 2 days; lungs 5-7 weeks later
Description: C8161 human melanoma cells were seeded into 100 mm tissue culture dishes at a density of 2×10^6 and incubated overnight at 37° C. in α-MEM medium supplemented with 10% FBS. The cells were trypsinized, collected by centrifugation and aliquots were removed from the suspension to determine the cell viability using trypan blue exclusion test. […] Treatment was initiated after 2 days. Estimates of the number of lung nodules were made 5-7 weeks later, after excised lungs from individual mice were stained with picric acid dye solution (75% picric acid, 20% formaldehyde, 5% glacial acetic acid).
Murine R3 fibrosarcoma and human C8161 melanoma cells injected into the tail vein of mice form observable lung nodules 2 weeks post-injection. […] To more accurately reflect the clinical situation, mice were treated with SEQ ID NO:1 post tumour cell injection. C8161 human metastatic melanoma cells were seeded into 100 mm tissue culture dishes at a density of 2×10^6 and incubated overnight at 37° C. in α-MEM medium supplemented with 10% FBS. The cells were trypsinized, collected by centrifugation and aliquots were removed from the suspension to determine the cell viability using trypan blue exclusion test. Approximately 1×10^5 cells suspended in 0.1 ml of PBS were injected into the tail veins of 6-8 week old female SCID mice. Treatment was initiated after 2 days. Estimates of the number of lung nodules were made 5-7 weeks later, after excised lungs from individual mice were stained with picric acid dye solution (75% picric acid, 20% formaldehyde, 5% glacial acetic acid). The results are shown in FIG. 31, bars represent the mean number of nodules per mouse with standard error.

[6] = system: Caki-1 human kidney cancer cells; assay: Caki-1 kidney tumour xenograft in SCID mice, controls and chemotherapeutics (Example 7); type: in vivo, human cells in mice
From the text: CD-1 athymic female nude mice, BALB/c nu/nu nude mice, SCID, and SCID beige mice were purchased from Charles River Laboratories (Montreal, Canada) and experiments were typically initiated when the mice were 6-7 weeks old. […] Each experimental group typically contained 10 mice. After the size of tumour reached a mean tumour volume of 50-100 mm^3, treatment was initiated. […] Anti-tumour activity was estimated by the measurement of tumour volume with a calliper at two-three day intervals. Tumour volume was calculated by a formula L×W×H/2, where L indicates length, W indicates width and H indicates height. Within 24 hours after the last treatment, the animals were sacrificed and tumour and body weights were measured. Results of statistical analyses of the data are presented as P values in the figure legends.
Three additional treatment groups received: 5-FU (13 mg/kg/day×5), vinblastine (1 mg/kg/week) and gemcitabine (100 mg/kg/week). […] Calliper measurements at 1-week intervals were used to calculate tumour volumes. Each point in FIG. 28A represents mean tumour volume calculated from 10 animals per experimental group (with the exception of SEQ ID NO:1 which was 8 animals).
After 49 days the mice were sacrificed and the tumours weighed. Each bar represents the mean tumour weight and standard error calculated for each treatment group.

[7] = Human Cervical Carcinoma^2 in SCID mice, Day 17 after tumour implantation

5′-GGCTAAATCGCTCCACCAAG-3′ (all phosphorothioate, sugars by position and methylation of C not given here) [SEQ ID NO: 1, fully phosphorothioated antisense oligonucleotide that hybridizes to the coding region of R2 mRNA]
Survival of mice [1]: survived beyond day 71 except one mouse, which died at day 22 | Inhibition of tumour weight ([2]; Human Cervical Carcinoma^2): ~90% | Inhibition of tumour size ([2]; Human Cervical Carcinoma^2 in SCID mice, Day 22 after tumour implantation): Inhibition of tumour size by approximately 90% | Inhibitory effect on tumour growth (tumour volume and weight, FIG. 22) ([2]; SIHA, SCID mice, 10 mg/kg i.v. every other day, 16 days): strong inhibitory effects on the growth of human cervical carcinoma | Clinical signs, body weight, blood pressure, heart rate, serum biochemistry, haematology ([3]; 24 hour i.v. infusion, any dose): No treatment-related clinical signs or changes in body weight, blood pressure, heart rate, serum biochemistry or haematology parameters | Deaths ([3]; 24 hour i.v. infusion, doses up to 80 mg/kg/day): no deaths during the study | Complement split product Bb ([3]; end of infusion at 20, 40, and 80 mg/kg/day): slight treatment-related increases in complement split product Bb | APTT ([3]; end of infusion at 40 and 80 mg/kg/day): Mild treatment-related changes in APTT | Tolerability ([3]; intravenous infusion for 24 hours at doses up to 80 mg/kg/day (984 mg/m^2/day)): well-tolerated | Inhibitory effect on tumour growth (tumour volume and weight, FIG. 23) ([4]; HeLa S3, SCID mice, 10 mg/kg i.v. every other day, 14 days): strong inhibitory effects on the growth of human cervical carcinoma | Inhibition of tumour size [4, 7]: approximately 60% in SCID mice on Day 17fter | Inhibition of tumour weight [4, 7]: approximately 60% in SCID mice on Day 17fter | Lung nodule formation / anti-metastatic activity (FIG. 31) [5]: only one of the 9 mice had lung nodules | Effect on tumour growth (volume and weight) ([6]; Caki-1, SCID mice, oligonucleotides 10 mg/kg/2 days i.v.): exceptional efficacy against renal cell carcinomas; also recorded: dramatic inhibition in growth of Caki-1 and A498 renal tumours; also recorded: superior to any of these compounds | Time of treatment to complete tumour regression ([6]; renal tumours, SCID mice, 10 mg/kg/2 days i.v., day 28 post implantation of tumour): ≤ 3 weeks
